# What was measured:
# Format in all cases: in vivo
# [1] = tested on: Johnsongrass (Sorghum halepense, SORHA); assay: Pre-emerge greenhouse herbicide test, phytotoxicity rating; conditions: 14 days after application, rating scale 0-100
# Outline: (§1)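 Visual 0–100 injury rating (100 = all plants dead) taken 14 days after treatment. Rates of 125–1000 g ai/ha in acetone, 187 l/ha, were sprayed onto soil one day post-sowing; pots were surface-watered to incorporate, then bottom-watered.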
# [2] = tested on: barnyardgrass (Echinochloa crusgalli, ECHCG); assay: as above; conditions: 14 days after application, rating scale 0-100
# Outline: as §1
# [3] = tested on: common ragweed (Ambrosia artemisiifolia L., AMBEL); assay: as above; conditions: 14 days after application, rating scale 0-100
# Outline: as §1
# [4] = tested on: green foxtail (Setaria viridis, SETVI); assay: as above; conditions: 14 days after application, rating scale 0-100
# Outline: as §1
# [5] = tested on: ivyleaf morningglory (Ipomoea hederacea, IPOHE); assay: as above; conditions: 14 days after application, rating scale 0-100
# Outline: as §1
# [6] = tested on: lambsquarters (Chenopodium album, CHEAL); assay: as above; conditions: 14 days after application, rating scale 0-100
# Outline: as §1
# [7] = tested on: large crabgrass (Digitaria sanguinalis, DIGSA); assay: as above; conditions: 14 days after application, rating scale 0-100
# Outline: as §1
# [8] = tested on: redroot pigweed (Amaranthus retroflexus, AMARE); assay: as above; conditions: 14 days after application, rating scale 0-100
# Outline: as §1
# [9] = tested on: sicklepod (Cassia obtusifolia, CASOB); assay: as above; conditions: 14 days after application, rating scale 0-100
# Outline: as §1
# [10] = tested on: velvetleaf (Abutilon theophrasti, ABUTH); assay: as above; conditions: 14 days after application, rating scale 0-100
# Outline: as §1
# [11] = tested on: common ragweed (Ambrosia artemisiifolia L., AMBEL); assay: Post-emerge greenhouse herbicide test, phytotoxicity rating; conditions: 14 days after application
# From the text: A standard greenhouse herbicide activity screening system was used to evaluate the herbicidal efficacy and crop safety of these test compounds. Six broadleaf weed species including redroot pigweed (Amaranthus retroflexus, AMARE), velvetleaf (Abutilon theophrasti, ABUTH), sicklepod (Cassia obtusifolia, CASOB), ivyleaf morningglory (Ipomoea hederacea, IPOHE), lambsquarters (Chenopodium album, CHEAL) and common ragweed (Ambrosia artemisiifolia L., AMBEL) were used as test species. Four grass weed species including green foxtail (Setaria viridis, SETVI), barnyardgrass (Echinochloa crusgalli, ECHCG), Johnsongrass (Sorghum halepense, SORHA), and large crabgrass (Digitaria sanguinalis, DIGSA) were also used. In addition, three crop species, field corn (Zea mays L., var. Dekalb 535, CORN), soybean (Glycine max L., var. Pella 86, SOY), and upland rice (Oryza sp., var.Tebonnet, RICE) were included.
# All test compounds were dissolved in acetone and applied to the test units in a volume of 187 l/ha. […] Plants were arranged on a shelf so that the top of the canopy (post-emerge) or top of the soil surface (pre-emerge) was 40-45 cm below the nozzle. Pressurized air was used to force the test solution through the nozzle as it was mechanically advanced (via electrically driven chain drive) over the top of all test plants/pots. This application simulates a typical commercial field herbicide application.
# In the post-emerge test, a commercial non-ionic surfactant was also included (0.25% v/v) to enhance wetting of the leaf surfaces Qf target plants at rates ranging from 63 g ai/ha to 1000 g ai/ha. For post-emerge tests, seeds were planted 8-21 days prior to the test to allow emergence and good foliage development prior to application of the test substances. At the time of the post-emerge application, plants of all species were usually at the 2-3 leaf stage of development. Post-emerge test units were always bottom-watered.
# At 14 days after application of the test materials, phytotoxicity ratings were recorded. A rating scale of 0-100 was used as previously described in Research Methods in Weed Science, 2nd edition, B. Truelove, Ed., Southern Weed Science Society, Auburn University, Auburn, Ala., 1977. Briefly, “0” corresponds to no damage and “100” corresponds to complete death of all plants in the test unit. This scale was used both to determine efficacy against weed species and damage to crop species. Herbicide activity data for various compounds of this invention, which are shown by compound number in Tables 1-9, are shown in Tables 13 and 14.
# [12] = tested on: Johnsongrass (Sorghum halepense, SORHA); assay: as above; conditions: 14 days after application
# Outline: (§2)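 Scores use a 0 (no damage) to 100 (complete kill) scale, taken 14 days after a foliar spray. Acetone solutions with 0.25% v/v non-ionic surfactant were applied by track sprayer at 187 l/ha and 63-1000 g ai/ha to bottom-watered 2-3 leaf plants.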
# [13] = tested on: barnyardgrass (Echinochloa crusgalli, ECHCG); assay: as above; conditions: 14 days after application
# Outline: as §2
# [14] = tested on: green foxtail (Setaria viridis, SETVI); assay: as above; conditions: 14 days after application
# Outline: as §2
# [15] = tested on: ivyleaf morningglory (Ipomoea hederacea, IPOHE); assay: as above; conditions: 14 days after application
# Outline: as §2
# [16] = tested on: lambsquarters (Chenopodium album, CHEAL); assay: as above; conditions: 14 days after application
# Outline: as §2
# [17] = tested on: large crabgrass (Digitaria sanguinalis, DIGSA); assay: as above; conditions: 14 days after application
# Outline: as §2
# [18] = tested on: redroot pigweed (Amaranthus retroflexus, AMARE); assay: as above; conditions: 14 days after application
# Outline: as §2
# [19] = tested on: sicklepod (Cassia obtusifolia, CASOB); assay: as above; conditions: 14 days after application
# Outline: as §2
# [20] = tested on: velvetleaf (Abutilon theophrasti, ABUTH); assay: as above; conditions: 14 days after application
# Outline: as §2
compound,measurement,setting,value
"COc1nc(OC)nc(Oc2cc(-c3nn(C)c(C(F)(F)F)c3Cl)c(F)cc2Cl)n1 [Compound 1-8, 4-chloro-3-(4-chloro-2-fluoro-5-(4,6-dimethoxy-2-triazinyloxy)phenyl)-1-methyl-5-trifluoromethyl-1H-pyrazole]",phytotoxicity rating SORHA,[1]; 125 g ai/ha,0
same,phytotoxicity rating SORHA,[1]; 500 g ai/ha,35
same,phytotoxicity rating ECHCG,[2]; 125 g ai/ha,0
same,phytotoxicity rating ECHCG,[2]; 500 g ai/ha,0
same,phytotoxicity rating AMBEL,[3]; 125 g ai/ha,0
same,phytotoxicity rating AMBEL,[3]; 500 g ai/ha,10
same,phytotoxicity rating SETVI,[4]; 125 g ai/ha,50
same,phytotoxicity rating SETVI,[4]; 500 g ai/ha,100
same,phytotoxicity rating IPOHE,[5]; 125 g ai/ha,0
same,phytotoxicity rating IPOHE,[5]; 500 g ai/ha,0
same,phytotoxicity rating CHEAL,[6]; 125 g ai/ha,0
same,phytotoxicity rating CHEAL,[6]; 500 g ai/ha,100
same,phytotoxicity rating DIGSA,[7]; 125 g ai/ha,20
same,phytotoxicity rating DIGSA,[7]; 500 g ai/ha,90
same,phytotoxicity rating AMARE,[8]; 125 g ai/ha,70
same,phytotoxicity rating AMARE,[8]; 500 g ai/ha,100
same,phytotoxicity rating CASOB,[9]; 125 g ai/ha,0
same,phytotoxicity rating CASOB,[9]; 500 g ai/ha,0
same,phytotoxicity rating ABUTH,[10]; 125 g ai/ha,0
same,phytotoxicity rating ABUTH,[10]; 500 g ai/ha,20
same,AMBEL phytotoxicity rating (0-100),[11]; 63 g al/ha,0
same,AMBEL phytotoxicity rating (0-100),[11]; 500 g al/ha,10
same,SORHA phytotoxicity rating (0-100),[12]; 63 g al/ha,0
same,SORHA phytotoxicity rating (0-100),[12]; 500 g al/ha,10
same,ECHCG phytotoxicity rating (0-100),[13]; 63 g al/ha,0
same,ECHCG phytotoxicity rating (0-100),[13]; 500 g al/ha,0
same,SETVI phytotoxicity rating (0-100),[14]; 63 g al/ha,50
same,SETVI phytotoxicity rating (0-100),[14]; 500 g al/ha,20
same,IPOHE phytotoxicity rating (0-100),[15]; 63 g al/ha,10
same,IPOHE phytotoxicity rating (0-100),[15]; 500 g al/ha,80
same,CHEAL phytotoxicity rating (0-100),[16]; 63 g al/ha,0
same,CHEAL phytotoxicity rating (0-100),[16]; 500 g al/ha,95
same,DIGSA phytotoxicity rating (0-100),[17]; 63 g al/ha,0
same,DIGSA phytotoxicity rating (0-100),[17]; 500 g al/ha,20
same,AMARE phytotoxicity rating (0-100),[18]; 63 g al/ha,20
same,AMARE phytotoxicity rating (0-100),[18]; 500 g al/ha,100
same,CASOB phytotoxicity rating (0-100),[19]; 63 g al/ha,0
same,CASOB phytotoxicity rating (0-100),[19]; 500 g al/ha,10
same,ABUTH phytotoxicity rating (0-100),[20]; 63 g al/ha,0
same,ABUTH phytotoxicity rating (0-100),[20]; 500 g al/ha,35

# From patent US6479435B1, “Diaryl ethers and processes for their preparation and herbicidal and desiccant compositions containing them” (ISK Americas Incorporated, priority 1997, dated 2002)
